One assay has as its system 5-HT1A receptor. As to conditions: cited from earlier work.
The next assay has as its target T1, dopamine D-2 receptor (Rattus norvegicus, UniProt P61169).
T1 construct: from tissue; host or cells: homogenized limbic brain tissue
Nature of the assay: dopamine D-2 receptor binding, displacement of 3H-spiroperidol, homogenized limbic brain tissue. The method, then:
High affinity for the dopamine D-2 receptor was established by the standard experimental test procedure of Fields et al., Brain Res., 136 578 (1977) and Yamamura et al., eds., Neurotransmitter Receptor Binding, Raven Press, N.Y. (1978) wherein homogenized limbic brain tissue is incubated with ^3 H-spiroperidol and various concentrations of test compound, filtered and washed and shaken with Hydrofluor scintillation cocktail (National Diagnostics) and counted in a Packard 460 CD scintillation counter.

Assay [1] deals with T2, serotonin 5-HT1A receptor (Rattus norvegicus, UniProt P19327).
T2 sequence (P19327 1-422): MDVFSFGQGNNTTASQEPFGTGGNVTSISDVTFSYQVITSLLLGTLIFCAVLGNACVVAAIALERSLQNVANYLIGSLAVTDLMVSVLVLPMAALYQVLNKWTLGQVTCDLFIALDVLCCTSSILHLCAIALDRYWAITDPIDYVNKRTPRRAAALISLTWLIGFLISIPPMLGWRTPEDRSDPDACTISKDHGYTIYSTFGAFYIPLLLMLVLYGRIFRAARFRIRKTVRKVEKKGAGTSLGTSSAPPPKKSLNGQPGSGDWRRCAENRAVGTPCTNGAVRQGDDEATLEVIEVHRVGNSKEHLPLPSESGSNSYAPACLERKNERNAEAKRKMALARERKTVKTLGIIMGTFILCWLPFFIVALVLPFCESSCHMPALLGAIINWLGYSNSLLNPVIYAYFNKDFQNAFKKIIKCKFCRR
The assay is described as follows: serotonin 5-HT1A receptor binding, displacement of [3H] 8-OHDPAT. Details: following the procedure of Hall et al., J. Neurochem; 44 1685 (1985); from tissue. Conditions: for inhibition at 0.1 µM: as marked beside the value. The source says: High affinity for the serotonin 5-HT1A receptor was established by testing the claimed compounds ability to displace [^3 H] 8-OHDPAT (dipropylaminotetralin) from the 5HT1A serotonin receptor following the procedure of Hall et al., J. Neurochem. 44 1685 (1985). […] The anxiolytic activity of buspirone is believed to be, at least partially, due to its 5-HT1A receptor affinity (Vander Maclen et al., Eur. J. Pharmacol. 1986, 129 (1-2) […].
In general terms: Displacement assays read how much labelled ligand stays bound in the presence of the test substance.

Assay [2] has as its target T2, serotonin 5-HT1A receptor. Conditions: in words; standard for anxiolytic activity; cited from earlier work.

The values that follow come from patent US4910302A, “Psychotropic polycyclic imides” (American Home Products Corporation, priority 1988, dated 1990).

As usually defined, the inhibition is how much of the control response was suppressed.

T1 sequence (P61169 whole entry): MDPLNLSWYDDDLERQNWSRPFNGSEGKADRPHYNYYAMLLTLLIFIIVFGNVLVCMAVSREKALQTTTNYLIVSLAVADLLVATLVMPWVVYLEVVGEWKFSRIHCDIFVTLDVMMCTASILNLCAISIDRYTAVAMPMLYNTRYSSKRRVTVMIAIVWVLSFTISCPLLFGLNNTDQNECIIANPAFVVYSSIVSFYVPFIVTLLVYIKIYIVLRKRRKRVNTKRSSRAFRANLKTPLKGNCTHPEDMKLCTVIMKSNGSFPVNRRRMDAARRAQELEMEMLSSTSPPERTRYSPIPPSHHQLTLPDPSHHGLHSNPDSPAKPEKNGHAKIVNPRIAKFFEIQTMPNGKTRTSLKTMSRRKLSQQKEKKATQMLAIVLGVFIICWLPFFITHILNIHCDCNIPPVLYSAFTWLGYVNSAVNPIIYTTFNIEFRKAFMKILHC

For the molecule `O=C1CC2(CCCC2)CC(=O)N1CCCCNCC1COc2ccccc2O1` (single isomer, unassigned) [-(MDL) 72832], in the assay with 5-HT1A receptor (ratio to dextro rotatory isomer), the “binding at the 5-HT1A receptor site relative to the dextro rotatory isomer” value is recorded as 32 times.

`O=C1C2CC(C(=O)N1CCCCNCC1COc3ccccc3O1)C1C2C2C3CC4C2C4C31` (stereo not shown) [Example 1, Decahydro-3-[4-[(2,3-dihydro-1,4-benzodioxan-2-ylmethyl)amino]butyl]-1,5-methano-6,7,9-metheno-2H-pentaleno[1,2-d]azepine-2,4(3H)-dione]: the inhibition at 1 µM came out at 100% at dopamine D-2 receptor and 96% in assay [1] (at 1 μM).

As to `O=C1C2C(C(=O)N1CCCCNCC1COc3ccccc3O1)C1C3CC4C(C32)C41` (stereo not drawn) [Example 2, Endo-2-[4-[(2,3-dihydro-1,4-benzodioxan-2-ylmethyl)amino]butyl]octahydro-4,5,7-metheno-1H-pentaleno[1,2-c]pyrrole-1,3(2H)-dione], the inhibition at 1 µM on dopamine D-2 receptor was determined as 100%; in assay [1] (at 1 μM), 96%.

In the case of `O=C1C2C(C(=O)N1CCCCNCC1COc3ccccc3O1)C1C3CC4C(C32)C41` (stereo not drawn) [Example 3, Exo-2-[4-[(2,3-dihydro-1,4-benzodioxan-2-ylmethyl)amino]butyl]octahydro-4,5,7-metheno-1H-pentaleno[1,2c]pyrrole-1,3(2H)-dione], the “D-2 Binding (% Inhibition at 1 μM)” value at dopamine D-2 receptor (at 1 μM) was determined as 100%. Besides, in assay [1] (at 1 μM), the “5-HT1A Binding (% Inhibition at 1 μM)” value is 94%.

For the molecule `O=C1C2C3C=CC(C4C=CC43)C2C(=O)N1CCCCNCC1COc2ccccc2O1` (stereo not shown) [Example 4, 2-[4-[(2,3-Dihydro-1,4-benzodioxan-2-ylmethyl)amino]butyl]hexahydro-4,7-etheno-1H-cyclobut[f]isoindole-1,3-(2H)-dione], the inhibition at 1 µM (at dopamine D-2 receptor; in assay [1] (at 1 μM)) was 100% each time.

Consider `O=C1C2C3C=CC(C4CC34)C2C(=O)N1CCCCNCC1COc2ccccc2O1` (stereo not shown) [Example 5], for which the inhibition at 1 µM (at dopamine D-2 receptor; in assay [1] (at 1 μM)) was 100% each time.

At dopamine D-2 receptor, `CC1(C)[C@@H]2CC[C@@]1(C)C(=O)N(CCNCC1COc3ccccc3O1)C2=O` (stereo partly shown) [Example 6] returned an inhibition at 1 µM of 61%. Moreover, in assay [1], the inhibition at 0.1 µM was determined as 52%.

`O=C1C2C3C=CC(C4C=CC43)C2C(=O)N1CCNCC1COc2ccccc2O1` (stereo not shown) [Example 7, 2-[2-[(2,3-Dihydro-1,4-benzodioxan-2-ylmethyl)amino]ethyl]hexahydro-4,7-etheno-1H-cyclobut[f]isoindole-1,3-(2H)-dione] returned an inhibition at 1 µM at dopamine D-2 receptor of 54%. Further, the inhibition at 0.1 µM in assay [1] is 92%.

Molecule `O=C1C2CC(C(=O)N1CCNCC1COc3ccccc3O1)C1C2C2C3CC4C2C4C31` (stereo not shown) [Example 8, Decahydro-3-[2-[(2,3-dihydro-1,4-benzodioxan-2-ylmethyl)amino]ethyl]-1,5-methano-6,7,9-metheno-2H-pentaleno[1,2d]azepine-2,4(3H)-dione] returned an inhibition at 1 µM at dopamine D-2 receptor of 89%. In assay [1], this molecule returned an inhibition at 0.1 µM of 100%.

In the case of `O=C1CC2(CCCC2)CC(=O)N1CCCCNCC1COc2ccccc2O1` (stereo not shown) [MDL 72832, 8-[4-(1,4-benzodioxan-2-ylmethylamino)butyl]-8-azaspiro[4.5]decane-7,9-dione], the “5-HT1A receptor ligand character” value in the assay on 5-HT1A receptor (in words) is “selective and stereospecific”.

Turning to `O=C1CC2(CCCC2)CC(=O)N1CCCCN1CCN(c2ncccn2)CC1` [buspirone], the “affinity for the 5-HT1A serotonin receptor subtype” value in assay [2] is listed as “potent affinity”.
